One assay concerns the target hS1P1/CHO cells (Homo sapiens (Human), UniProt P21453). In words: hS1P1 ERK phosphorylation (S1P1 pERK). The format is cell-based. The settings on record: phosphate examples. As to the method: hS1P1 ERK Phosphorylation (S1P1 pERK)
hS1P1/CHO cells were plated into BD Amine 384-well plates the day before the assay. On the day of the assay, growth medium was removed and replaced with serum-free medium (Ham's F-12 Invitrogen) and incubated for 2 hours. Test compounds pre-diluted in HBSS (Gibco)/20 mM HEPES (Gibco) were transferred to the cell plates and incubated for 7 minutes at 37° C. Cells were lysed in lysis buffer (Perkin Elmer) and phospho-ERK was measured using the SureFire pERK kit (Perkin Elmer) as described by the manufacturer. Data was plotted as percentage activation of the test compound relative to the efficacy of 10 μM S1P.

Assay [1] deals with S1P3 (membranes prepared from EDG3-Gal5-bla HEK293T cells) (Homo sapiens (Human), UniProt Q99500). The assay can be described thus: Receptor [35S] GTPγS binding assay (S1P3 GTPγS). The format is biochemical. The following applies: phosphate examples; read-out: S1P3 GTPγS. Here is the method: (§1) Receptor [^35S] GTPγS Binding Assays: (S1P1 GTPγS/S1P3 GTPγS)
(§2) Compounds were loaded in a 384 Falcon v-bottom plate (0.5 μl/well in a 11 point, 3-fold dilution). Membranes prepared from S1P1/CHO cells or EDG3-Gal5-bla HEK293T cells (EDG3 equivalent S1P3) were added to the compound plate (40 μl/well, final protein 3 μg/well) with MULTIDROP®. [^35S] GTP (1250 Ci/mmol, Perkin Elmer) was diluted in assay buffer: 20 mM HEPES, pH7.5, 10 mM MgCl2, 150 mM NaCl, 1 mM EGTA (ethylene glycol tetraacetic acid), 1 mM DTT (Dithiothreitol), 10 μM GDP, 0.1% fatty acid free BSA, and 10 μg/ml Saponin to 0.4 nM. 40 μl of the [^35S] GTP solution was added to the compound plate with a final concentration of 0.2 nM. The reaction was kept at room temperature for 45 min. At the end of incubation, all the mixtures in the compound plate were transferred to Millipore 384-well FB filter plates via the VELOCITY11® Vprep liquid handler. The filter plate was washed with water 4 times by using the manifold Embla plate washer and dried at 60° C. for 45 min. MicroScint 20 scintillation fluid (30 μl) was added to each well for counting on the Packard TOPCOUNT®.
A smaller value for GTPγS S1P1 EC50 value indicated greater activity for the compound in the GTPγS S1P1 binding assay. A larger value for the GTPγS S1P3 EC50 value indicated less activity in the GTPγS S1P3 binding assay. […] Thus the compounds of the present invention may be used in treating, preventing, or curing various S1P1 receptor-related conditions while reducing or minimizing the side effects due to S1P3 activity. The selectivity of the compounds of the present invention indicate their potential use in treating, preventing, or curing autoimmune and inflammatory diseases such as multiple sclerosis, rheumatoid arthritis, inflammatory bowel disease, lupus, psoriasis, or vascular diseases, while reducing or minimizing possible side effects due to S1P3 activity. Other potential uses of the compounds of the present invention include minimizing or reducing rejection of transplanted organs, while reducing or minimizing side effects due to S1P3 activity.
(GTPγS is a poorly hydrolysed GTP analogue; its binding reports G protein activation.)

For another assay, the target named is human S1P1 (Homo sapiens (Human), UniProt P21453). The assay can be described thus: S1P1 binding assay (33P-S1P radioligand competition, CHO cell membranes). The following applies: phosphate examples; read-out: S1P1 Binding. Here is the method: Membranes were prepared from CHO cells expressing human S1P1. Cells pellets (1×10^9 cells/pellet) were suspended in buffer containing 20 mM HEPES (4-(2-hydroxyethyl)-1-piperazineethanesulfonic acid), pH 7.5, 50 mM NaCl, 2 mM EDTA (Ethylenediaminetetraacetic acid) and Protease Inhibitor cocktail (Roche), and disrupted on ice using the Polytron homogenizer. The homogenate was centrifuged at 20,000 rpm (48,000 g) and the supernatant was discarded. The membrane pellets were resuspended in buffer containing 50 mM HEPES, pH 7.5, 100 mM NaCl, 1 mM MgCl2, 2 mM EDTA and stored in aliquots at −80° C. after protein concentration determination.
In general terms: In a radioligand displacement assay an active substance lowers the binding of a labelled ligand.

The target of assay [2] is S1P1 (membranes prepared from S1P1/CHO cells) (Homo sapiens (Human), UniProt P21453). The assay can be described thus: Receptor [35S] GTPγS binding assay (S1P1 GTPγS). The assay is classed as biochemical. The settings on record: phosphate examples; read-out: S1P1 GTPγS. Here is the method: as §1
as §2, with “TOPCOUNT®. […]” for “TOPCOUNT®.”

Chain of S1P3 (membranes prepared from EDG3-Gal5-bla HEK293T cells) (Q99500 whole entry): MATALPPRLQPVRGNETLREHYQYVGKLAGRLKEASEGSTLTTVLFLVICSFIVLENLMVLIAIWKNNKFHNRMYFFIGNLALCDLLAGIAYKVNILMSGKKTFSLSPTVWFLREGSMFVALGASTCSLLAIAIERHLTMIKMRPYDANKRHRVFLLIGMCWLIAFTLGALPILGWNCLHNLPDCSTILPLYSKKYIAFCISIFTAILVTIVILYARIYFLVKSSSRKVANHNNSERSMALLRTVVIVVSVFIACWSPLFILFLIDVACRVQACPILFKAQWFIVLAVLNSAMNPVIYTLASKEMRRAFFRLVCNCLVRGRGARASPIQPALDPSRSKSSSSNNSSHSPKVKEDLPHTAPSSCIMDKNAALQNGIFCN
Chain of S1P1 (membranes prepared from S1P1/CHO cells) (P21453 whole entry): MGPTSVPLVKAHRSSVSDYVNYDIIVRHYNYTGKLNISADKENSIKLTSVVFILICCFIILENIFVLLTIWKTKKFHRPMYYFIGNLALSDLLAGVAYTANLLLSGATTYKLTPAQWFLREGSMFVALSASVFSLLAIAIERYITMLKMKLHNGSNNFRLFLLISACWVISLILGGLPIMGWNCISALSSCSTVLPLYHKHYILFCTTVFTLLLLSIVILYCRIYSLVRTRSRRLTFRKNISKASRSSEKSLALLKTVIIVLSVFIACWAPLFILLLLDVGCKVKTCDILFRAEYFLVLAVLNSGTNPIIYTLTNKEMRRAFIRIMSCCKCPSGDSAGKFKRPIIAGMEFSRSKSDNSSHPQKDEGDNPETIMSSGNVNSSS
Chain of human S1P1 (P21453 whole entry): as above
Chain of hS1P1/CHO cells (P21453 whole entry): as above

With `N[C@]1(COP(=O)(O)O)CC[C@H](c2ccc3c(c2)CCC2(CCCCO2)C3)C1` (some centres unmarked) [compound 634], the figures for the EC50 (at hS1P1/CHO cells; in assay [1]) were 10 to 100 nM and more than 625 nM, respectively. In addition, at human S1P1, the IC50 was in the range of 10 to 100 nM.
Consider `N[C@]1(COP(=O)(O)O)CC[C@H](c2ccc3c(c2)CC[C@@H](COc2cccc(OC(F)(F)F)c2)C3)C1` [compound 497], for which the figures for the EC50 (on hS1P1/CHO cells; in assay [1]; in assay [2]) were less than 10 nM, more than 625 nM and less than 10 nM, respectively. Further, the IC50 at human S1P1 lay in the range of 10 to 100 nM.
Take `COCCC/C=C/[C@H]1CCc2cc([C@H]3CC[C@](N)(COP(=O)(O)O)C3)ccc2C1` [compound 638]: the EC50 at hS1P1/CHO cells is less than 10 nM; in assay [1], more than 100 nM; in assay [2], 10 to 100 nM. Besides, the IC50 at human S1P1 was less than 10 nM.
For `COc1ccc(C[C@@H]2CCc3cc([C@H]4CC[C@](N)(COP(=O)(O)O)C4)ccc3C2)cc1F` [compound 554], the EC50 on hS1P1/CHO cells is 10 to 100 nM; in assay [1] it was more than 625 nM; in assay [2] it was 10 to 100 nM.
For `COc1ccccc1OC[C@@H]1CCc2cc([C@H]3CC[C@](N)(COP(=O)(O)O)C3)ccc2C1` [compound 475], the EC50 at hS1P1/CHO cells is less than 10 nM; in assay [1] it was more than 625 nM; in assay [2], 10 to 100 nM. Besides, the IC50 at human S1P1 was less than 10 nM.
In the case of `COCCCC[C@H]1CCc2cc([C@@H]3CC[C@@](N)(COP(=O)(O)O)C3)ccc2C1` [compound 596], the values for the EC50 (on hS1P1/CHO cells; in assay [1]; in assay [2]) were less than 10 nM, more than 625 nM and 10 to 100 nM, respectively. In addition, at human S1P1, the IC50 is less than 10 nM.
Turning to `Cn1cc(COC[C@@H]2CCc3cc([C@H]4CC[C@](N)(COP(=O)(O)O)C4)ccc3C2)cn1` [compound 471], the EC50 at hS1P1/CHO cells is 10 to 100 nM; in assay [1], more than 625 nM. Further, at human S1P1, the IC50 was 100 to 1000 nM.
Turning to `COc1ccc(CC[C@H]2CCc3cc([C@@H]4CC[C@@](N)(COP(=O)(O)O)C4)ccc3C2)cc1` [compound 594], the EC50 is 100 to 1000 nM at hS1P1/CHO cells, more than 625 nM in assay [1] and 10 to 100 nM in assay [2]. Moreover, the IC50 on human S1P1 was in the range of 10 to 100 nM.
As for `Cc1cccc(/C=C/[C@@H]2CCc3cc([C@H]4CC[C@](N)(COP(=O)(O)O)C4)ccc3C2)c1` [compound 644], the figures for the EC50 (on hS1P1/CHO cells; in assay [1]; in assay [2]) were 100 to 1000 nM, more than 625 nM and 10 to 100 nM, respectively. The IC50 on human S1P1 lay within 100 to 1000 nM.
`COc1ccc(F)c(CC[C@H]2CCc3cc([C@@H]4CC[C@@](N)(COP(=O)(O)O)C4)ccc3C2)c1` (single isomer, unassigned) [compound 609]: the EC50 on hS1P1/CHO cells was less than 10 nM; in assay [1], more than 625 nM; in assay [2], 10 to 100 nM. On human S1P1, the IC50 is 10 to 100 nM.
Regarding `CCCCO/N=C(\C)[C@@H]1CCc2cc([C@H]3CC[C@](N)(COP(=O)(O)O)C3)ccc2C1` [compound 665], the values for the EC50 (at hS1P1/CHO cells; in assay [1]; in assay [2]) were 10 to 100 nM, more than 625 nM and less than 10 nM, respectively. Further, at human S1P1, the IC50 is less than 10 nM.
With `COCCCOC[C@@H]1CCc2cc([C@H]3CC[C@](N)(COP(=O)(O)O)C3)ccc2C1` [compound 458], the EC50 on hS1P1/CHO cells is less than 10 nM; in assay [1], more than 625 nM; in assay [2] it was 10 to 100 nM. Also, at human S1P1, the IC50 is less than 10 nM.
In the case of `COc1ccc(F)c(OC[C@@H]2CCc3cc([C@H]4CC[C@](N)(COP(=O)(O)O)C4)ccc3C2)c1` [compound 486], the EC50 was 10 to 100 nM on hS1P1/CHO cells and less than 10 nM in assay [2].
Turning to `N[C@]1(COP(=O)(O)O)CC[C@H](c2ccc3c(c2)CC[C@@H](COCc2ccsc2)C3)C1` [compound 473], the EC50 at hS1P1/CHO cells is 10 to 100 nM; in assay [1], more than 625 nM. Moreover, the IC50 at human S1P1 is less than 10 nM.
Turning to `CC(C)COCC[C@@H]1CCc2cc([C@H]3CC[C@](N)(COP(=O)(O)O)C3)ccc2C1` [compound 542], the EC50 was less than 10 nM on hS1P1/CHO cells, more than 625 nM in assay [1] and less than 10 nM in assay [2].
Consider `N[C@]1(COP(=O)(O)O)CC[C@H](c2ccc3c(c2)CC[C@H](c2ccncc2)C3)C1` [compound 574], for which the EC50 at hS1P1/CHO cells was 10 to 100 nM; in assay [1] it was more than 625 nM. Besides, the IC50 on human S1P1 was in the range of 100 to 1000 nM.
For `CCCSC[C@H]1CCc2cc([C@H]3CC[C@](N)(COP(=O)(O)O)C3)ccc2C1` [compound 502], the EC50 is less than 10 nM on hS1P1/CHO cells and 10 to 100 nM in assay [2]. The IC50 on human S1P1 was less than 10 nM.
Regarding `N[C@@]1(COP(=O)(O)O)CCC(c2ccc3c(c2)CN(CCCc2ccccc2)C3=O)C1` (some centres unmarked) [compound 613], the EC50 at hS1P1/CHO cells was 100 to 1000 nM; in assay [1] it was more than 625 nM. For the same molecule, the IC50 on human S1P1 lay in the range of 1000 to 10000 nM.
As to `CCCCNC(=O)OC1CCc2cc([C@H]3CC[C@@](N)(COP(=O)(O)O)C3)ccc2C1` (some centres unmarked) [compound 625], the EC50 was 10 to 100 nM at hS1P1/CHO cells, more than 625 nM in assay [1] and 100 to 1000 nM in assay [2].
In the same order, the values of `CC(C)CN(C)C(=O)c1cccc(OC[C@@H]2CCc3cc([C@H]4CC[C@](N)(COP(=O)(O)O)C4)ccc3C2)c1` [compound 500] are less than 10 nM, more than 625 nM and less than 10 nM.
On to `N[C@@]1(COP(=O)(O)O)CC[C@@H](c2ccc3c(c2)CC[C@@H](OCCOc2ccccc2)C3)C1` [compound 583], for which the EC50 at hS1P1/CHO cells is less than 10 nM; in assay [1], more than 100 nM; in assay [2] it was less than 10 nM.
Regarding `Cc1cc(COC[C@@H]2CCc3cc([C@H]4CC[C@](N)(COP(=O)(O)O)C4)ccc3C2)sc1C` [compound 488], the results for the EC50 (at hS1P1/CHO cells; in assay [2]) were less than 10 nM and 10 to 100 nM, respectively. For the same molecule, the IC50 at human S1P1 was less than 10 nM.
For the molecule `CCCC/C=C/C1=Cc2ccc([C@H]3CC[C@](N)(COP(=O)(O)O)C3)cc2CC1` [compound 647], the EC50 on hS1P1/CHO cells was 10 to 100 nM; in assay [1] it was more than 625 nM; in assay [2], 100 to 1000 nM.
For `CCCCC1CCCC2(CCc3cc([C@H]4CC[C@](N)(COP(=O)(O)O)C4)ccc3C2)O1` (some centres unmarked) [compound 630], the EC50 at hS1P1/CHO cells is 100 to 1000 nM; in assay [1], more than 625 nM. In addition, the IC50 on human S1P1 is less than 10 nM.
`CCCCC=C[C@H]1CCc2cc([C@H]3CC[C@](N)(COP(=O)(O)O)C3)ccc2C1` [compound 649]: the EC50 at hS1P1/CHO cells was in the range of 10 to 100 nM; in assay [2] it was 100 to 1000 nM. Further, the IC50 on human S1P1 was 10 to 100 nM.
For the molecule `CC(C)COCC[C@H]1CCc2cc([C@H]3CC[C@](N)(COP(=O)(O)O)C3)ccc2C1` [compound 543], the EC50 on hS1P1/CHO cells is less than 10 nM; in assay [1], more than 625 nM; in assay [2], less than 10 nM.
Turning to `CCCCN(C)C(=O)OC1CCc2cc([C@H]3CC[C@](N)(COP(=O)(O)O)C3)ccc2C1` (some centres unmarked) [compound 628], the EC50 was less than 10 nM at hS1P1/CHO cells, more than 625 nM in assay [1] and less than 10 nM in assay [2].

Values taken from patent US9522888B2, “Substituted bicyclic compounds” (BRISTOL-MYERS SQUIBB COMPANY, priority 2014, dated 2016).
